Drawing on PubChem BioAssay (NCI), this text covers GI50 and TGI for ten compounds.

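How tested: cells in 96-well plates exposed to compound for 48 hours at five concentrations. At the GI50, growth is halved. TGI denotes the concentration required for complete inhibition of growth.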

Some test systems named below: A549 NSCLC; DU-145 prostate; NCI/ADR-RES ovarian; RPMI-8226 leukemia; SF-539 CNS; SK-MEL-5 melanoma; SNB-75 CNS; TK-10 renal; UACC-62 melanoma; UO-31 renal.
Experiment in all cases: NCI tumour cell line growth inhibition, 48 h

As for `COc1cc(-c2cc(-c3ccc(N(C)C)cc3)nc(N3CCOCC3)c2C#N)cc(OC)c1OC`, the GI50 was 1.25 µM with A549 NSCLC; 9.12 µM in the test with DU-145 prostate; 0.246 µM with NCI/ADR-RES ovarian; 0.0677 µM in the test with RPMI-8226 leukemia; 2.22 µM with SF-539 CNS; 0.171 µM in the test with SK-MEL-5 melanoma. For the same compound, the GI50 is 13.3 µM in the test on SNB-75 CNS, 2.51 µM in the test with TK-10 renal, 0.628 µM with UACC-62 melanoma and 6.85 µM in the test on UO-31 renal. The TGI in the test with A549 NSCLC is > 100 µM; with DU-145 prostate it was > 100 µM; in the test with NCI/ADR-RES ovarian, > 91.4 µM; in the test on RPMI-8226 leukemia, 5.08 µM; with SF-539 CNS it was > 54.8 µM; in the test with SK-MEL-5 melanoma it was 0.729 µM. In addition, the TGI is > 76.9 µM with SNB-75 CNS, > 100 µM in the test on TK-10 renal, 1.71 µM in the test with UACC-62 melanoma and > 60.8 µM in the test with UO-31 renal.

For `CCCCCCCCCCCCn1c(C)nc2ccccc21`, the GI50 was 0.4 µM in the test on A549 NSCLC; 17.2 µM with DU-145 prostate; 2.55 µM in the test on NCI/ADR-RES ovarian; 0.614 µM with RPMI-8226 leukemia; 13.7 µM in the test on SF-539 CNS; 0.984 µM with SK-MEL-5 melanoma. Also, the GI50 was 16.2 µM in the test with SNB-75 CNS, 11.2 µM with TK-10 renal, 13.1 µM in the test with UACC-62 melanoma and 7.58 µM in the test on UO-31 renal. The TGI in the test on A549 NSCLC came to 20.7 µM; in the test on DU-145 prostate, 35.4 µM; in the test on NCI/ADR-RES ovarian it was 12.9 µM; in the test on RPMI-8226 leukemia, 10.3 µM; in the test with SF-539 CNS, 27 µM; in the test with SK-MEL-5 melanoma, 18.2 µM. Further, the TGI amounted to 30.3 µM in the test on SNB-75 CNS, 25.5 µM in the test with TK-10 renal, 26.9 µM in the test with UACC-62 melanoma and 20.6 µM in the test with UO-31 renal.

On to `O=C(NCc1cccnc1)/C(=C\c1ccc(Br)cc1)S(=O)(=O)c1ccccc1`, for which the GI50 with A549 NSCLC was 1.48 µM; in the test with DU-145 prostate, 0.431 µM; in the test on NCI/ADR-RES ovarian it was 1.75 µM; in the test on RPMI-8226 leukemia, 0.408 µM; in the test on SF-539 CNS, 0.663 µM; in the test with SK-MEL-5 melanoma, 1.38 µM. For the same compound, the GI50 is 1.05 µM in the test with SNB-75 CNS, 1.5 µM with TK-10 renal, 1.14 µM in the test with UACC-62 melanoma and 0.904 µM with UO-31 renal. For the same compound, the TGI in the test on A549 NSCLC is 3.31 µM; in the test with DU-145 prostate, 1.53 µM; in the test on NCI/ADR-RES ovarian, 5.43 µM; with RPMI-8226 leukemia it was 2.43 µM; with SF-539 CNS, 1.61 µM; in the test with SK-MEL-5 melanoma, 2.69 µM. Besides, the TGI with SNB-75 CNS amounted to 2.34 µM; in the test on TK-10 renal, 2.91 µM; in the test with UACC-62 melanoma, 2.53 µM; in the test on UO-31 renal, 2.21 µM.

On to `O=C1c2ccccc2C(=O)c2c1ccc(C(Br)Br)c2[N+](=O)[O-]`, for which the GI50 with A549 NSCLC was 17.6 µM; in the test with DU-145 prostate, 1.98 µM; with NCI/ADR-RES ovarian it was 2.01 µM; with SF-539 CNS, 1.76 µM; with SK-MEL-5 melanoma, 1.77 µM; in the test on SNB-75 CNS, 14.1 µM. Moreover, the results for the GI50 in the test on TK-10 renal, with UACC-62 melanoma and with UO-31 renal were 1.95 µM, 1.31 µM and 1.52 µM, respectively. In addition, the TGI with A549 NSCLC worked out at 33.6 µM; with DU-145 prostate it was 4.01 µM; with NCI/ADR-RES ovarian it was 6.56 µM; in the test with SF-539 CNS it was 3.41 µM; with SK-MEL-5 melanoma it was 3.73 µM; with SNB-75 CNS it was 28.7 µM. The figures for the TGI with TK-10 renal, with UACC-62 melanoma and with UO-31 renal were 3.84 µM, 3.1 µM and 2.93 µM, respectively.

For the compound `CN(C)CCCNc1nn2c(=O)c3ccccc3nc2c2ccccc12`, the GI50 was 5.64 µM in the test with A549 NSCLC; 10.4 µM in the test on DU-145 prostate; 12.3 µM in the test with NCI/ADR-RES ovarian; 11.9 µM with RPMI-8226 leukemia; 3.95 µM with SF-539 CNS; 7.74 µM with SK-MEL-5 melanoma. The results for the GI50 in the test on SNB-75 CNS, with TK-10 renal and in the test on UO-31 renal were 2.73 µM, 11.1 µM and 3.55 µM, respectively. Further, the TGI in the test on A549 NSCLC was 25.2 µM; in the test on DU-145 prostate, 28.4 µM; with NCI/ADR-RES ovarian, 35.5 µM; with RPMI-8226 leukemia, 33.7 µM; in the test on SF-539 CNS, 15.4 µM; in the test on SK-MEL-5 melanoma, 20.9 µM. Moreover, the TGI stood at 51.1 µM with SNB-75 CNS, 45.4 µM in the test on TK-10 renal and 18.2 µM in the test with UO-31 renal.

For `O=C(c1ccccc1)C1C(C(=O)c2ccccc2)N1Cc1ccccc1` (stereo unspecified), the TGI was > 100 µM in the test on A549 NSCLC; 85.8 µM in the test on DU-145 prostate; > 100 µM in the test on NCI/ADR-RES ovarian; > 100 µM in the test on RPMI-8226 leukemia; 36.7 µM in the test with SK-MEL-5 melanoma; 57.1 µM in the test on SNB-75 CNS. The TGI was > 100 µM in the test with TK-10 renal, 70.8 µM with UACC-62 melanoma and > 100 µM in the test with UO-31 renal.

Consider `S=c1nc(-c2nc(=S)[nH]c3c2CCCCCCCCCC3)c2c([nH]1)CCCCCCCCCC2`, for which the TGI in the test on A549 NSCLC, in the test with DU-145 prostate, with NCI/ADR-RES ovarian, in the test on SF-539 CNS, in the test on SK-MEL-5 melanoma and with SNB-75 CNS was > 100 µM in each case. Moreover, the TGI in the test on TK-10 renal, in the test with UACC-62 melanoma and in the test on UO-31 renal was > 100 µM throughout.

For the compound `COc1ccccc1/C=C\c1cnnc2ccccc12`, the TGI with A549 NSCLC, in the test with DU-145 prostate, in the test on NCI/ADR-RES ovarian, in the test on RPMI-8226 leukemia, in the test on SF-539 CNS and with SK-MEL-5 melanoma was > 10 µM throughout. Moreover, the TGI in the test with SNB-75 CNS, in the test on TK-10 renal and in the test with UACC-62 melanoma was > 10 µM in each case.

For the compound `O=C(O)c1c(O)c2cc(Br)ccc2oc1=O`, the TGI in the test on A549 NSCLC, with DU-145 prostate, in the test with NCI/ADR-RES ovarian, in the test on RPMI-8226 leukemia, in the test on SF-539 CNS and in the test on SK-MEL-5 melanoma was > 100 µM each time. Besides, the TGI in the test with SNB-75 CNS, in the test with TK-10 renal and in the test on UACC-62 melanoma was > 100 µM in each case.

In the case of `O=NC1c2cccc3cccc(c23)C1N=O` (stereo unspecified), the TGI was 17 µM in the test on A549 NSCLC; > 100 µM in the test on DU-145 prostate; 7.21 µM with NCI/ADR-RES ovarian; 39.9 µM in the test on RPMI-8226 leukemia; 26.6 µM with SF-539 CNS; 30.7 µM with SK-MEL-5 melanoma. Further, the figures for the TGI in the test on SNB-75 CNS, in the test with TK-10 renal and with UO-31 renal were 31.3 µM, 37.1 µM and 11.7 µM, respectively.
